What was measured:
Assay type in all cases: in vivo, mouse
[1] = test system: naturally aged C57BL6J mice; test: Frailty (open field, wire hanging, grip strength, muscle and fat tissue) in naturally aged mice, Example 21-7, Table 23
Experimental: (§1) 22-month-old female C57BL6J mice (KRIBB Laboratory Animal Resource Center) were acclimated to the experimental environment for one week, after which the aged mice were randomly assigned to experimental and control groups. Eight-week-old, non-aged mice served as controls. LX-403 was mixed in a 10% ethanol solution of PEG400 and administered orally at a concentration of 25 mg/kg daily for 21 days, or administered to the skin, joints, or eyes at a concentration of 1 μM. LX-1801 was mixed in distilled water with 4% DMSO, 30% PEG300, and 5% Tween80 and administered to the skin, joints, or eyes at a concentration of 0.4 μM daily for 21 days. LX-2001 was mixed in PBS and administered to the skin, joints, or eyes at a concentration of […] daily for 21 days. LX-2002 was mixed in distilled water with 4% DMSO, 30% PEG300, and 5% Tween80 and administered to the skin, joints, or eyes at a concentration of 2 μM daily for 21 days. […] LX-2005 was mixed in distilled water with 4% DMSO, 30% PEG300, and 5% Tween80 and administered to the skin, joints, or eyes at a concentration of 90 μM daily for 21 days. LX-2007 was mixed in distilled water with 4% DMSO, 30% PEG300, and 5% Tween80 and administered to the skin, joints, or eyes at a concentration of 90 μM daily for 21 days. […] LX-3002 was mixed in distilled water with 4% DMSO, 30% PEG300, and 5% Tween80 and administered orally at a concentration of 10 mg/kg daily for 21 days. […] LX-5411 was mixed in 5% PBS and administered orally at a concentration of 10 mg/kg daily for 21 days or administered to the skin, joints, or eyes at a concentration of 3 μM. LX-5701 was mixed in PBS and administered orally at a concentration of 360 mg/kg daily for 21 days. LX-6807 was mixed in saline and administered intraperitoneally at a concentration of 1 mg/kg daily for 21 days. LX-2101 or LX-2102 was mixed in PBS solution with 5% DMSO and administered intraperitoneally at a concentration of 20 mg/kg or 10 mg/kg, respectively, daily for 21 days. The control group received only the solution in the same volume. After the end of drug administration, the methods described in each example below were performed.
To analyze frailty due to aging in mice, an activity test (open field test), an endurance test (wire hanging test), and a muscle strength and grip strength test (grip strength test) were performed using the same method as in Example 7-7 of WO2023-085787 A1. The table below quantitatively represents the results of activity, endurance, muscle strength, and grip strength, which are criteria for assessing frailty, under conditions in which aging was induced and the test compound was not administered or administered. The amount of each evaluation after aging was calculated as 100% and compared with the amount of each evaluation after treatment with the drug of the present invention.

[2] = test system: naturally aged C57BL6J mice; conditions: after 7 days; 6 mm punch dorsal skin wounds; naturally aged mice; untreated aged 3.2 (±0.4)
[3] = test system: naturally aged C57BL6J mice; test: Joint aging (arthritis marker mRNA) in naturally aged mice, Example 21-12, Table 27
Experimental: as §1
RNA was extracted from joint tissue as described in Example 7-2 of WO2023-085787 A1, and qRT-PCR was performed using the synthesized cDNA. […] To analyze joint pain due to joint aging, hotplate analysis was performed. Specifically, thermal pain thresholds were measured using a hot plate. After acclimating mice to a temperature of 30° C. for 10 minutes, the time required for hind paw licking or jumping responses to occur at 55° C. was measured. To prevent tissue damage, the response was measured for less than 30 seconds, and the average value was used from five measurements.

[4] = test system: naturally aged C57BL6J mice; test: Cataract incidence in naturally aged mice, Example 21-15, Table 30; conditions: orally twice a week, 360 mg/kg, until death, untreated aged 83
Experimental: as §1
Cataracts, which occur with age, are a disease that causes visual impairment due to clouding of the lens and are a major cause of blindness. The mice of Example 21-1 were treated with the test compound mixed in PBS orally twice a week at a concentration of 360 mg/kg. Cataract development was assessed biweekly until death.

[5] = test system: doxorubicin-induced aged C57BL6J mice; test: Hair loss area in doxorubicin-aged mice, Example 22-11, Table 40; conditions: doxorubicin-induced aged mice; untreated 100 (±15.4)
Experimental: Eight-week-old male C57BL6J mice (KRIBB Laboratory Animal Resource Center) were acclimated to the experimental environment for one week. Afterwards, the anticancer agent doxorubicin was administered intraperitoneally at a concentration of 10 mg/kg, inducing aging for more than 10 days. The aging-induced mice were randomly assigned to experimental and control groups. LX-403 was mixed with a 10% ethanol solution of PEG400 and administered orally at a concentration of 25 mg/kg or intradermally at a concentration of 1 μM for 21 days. LX-1801 was mixed in distilled water with 4% DMSO, 30% PEG300, and 5% Tween80 and administered intradermally at a concentration of 0.4 μM daily for 21 days. LX-2001 was mixed in PBS and administered intradermally at a concentration of 2 μM daily for 21 days. LX-2002 was mixed in distilled water with 4% DMSO, 30% PEG300, and 5% Tween80 and administered intradermally at a concentration of 2 μM daily for 21 days. […] LX-2005 was mixed in distilled water with 4% DMSO, 30% PEG300, and 5% Tween80 and administered intradermally at a concentration of 90 μM daily for 21 days. LX-2007 was mixed in distilled water with 4% DMSO, 30% PEG300, and 5% Tween80 and administered intradermally at a concentration of 90 μM daily for 21 days. […] LX-3002 was mixed in distilled water with 4% DMSO, 30% PEG300, and 5% Tween80 and administered orally at a concentration of 10 mg/kg daily for 21 days. […] LX-5411 was mixed in 5% phosphate-buffered saline (PBS) and administered orally at a concentration of 10 mg/kg daily for 21 days or intradermally at a concentration of 3 μM. LX-5701 was mixed in PBS and administered orally at a concentration of 360 mg/kg daily for 21 days. LX-6807 was mixed in saline and administered intraperitoneally at a concentration of 1 mg/kg daily for 21 days. The control group received only the solution in the same volume. After the end of drug administration, the methods described in each example below were performed.
Alopecia is one of the most troubling side effects of chemotherapy, for which there is currently no treatment. Hair loss in mice induced to age by the anticancer drug was quantified using imaging software such as ImageJ (NIH) from digital photographs taken using a fixed camera position and magnification.

## Cc1cccc([C@H](C)c2cnc[nH]2)c1C [LX-6807, Dexmedetomidine]
[1]; inguinal and epididymal fat, untreated aged 0.82 (±0.19)
  Fat Mass (g): 1.08 (±0.15) g
[1]; quadriceps and gastrocnemius, untreated aged 0.64 (±0.06)
  Muscle Mass (g): 0.74 (±0.04) g
[1]; untreated aged = 100%
  Grip Sterenght Test Strength (%): 128 (±6.2) %
  Open Field Test Time in Center (%): 269 (±13.3) %
  Wire Hanging Test Time (%): 156 (±16.4) %
[2]
  Wound size (mm): 1.7 (±0.1) mm
[3]
  Col2a1 mRNA (fold): 3.5 (±0.2) fold
[4]
  Cataract incidence (%): 61%
[5]
  Relative area of hair loss: 59 (±3.2) %

— US20260306460A1, “COMPOSITION FOR REMOVING AND INHIBITING SENESCENT CELLS, AND USES THEREOF” (LIFECEUTIX CO., LTD., priority 2023, published 2026)
